Assay results from US7625711B2, “Screening method for the identification of a drug for the development of an agent for prevention and/or treatment of Alzheimer's disease” (Hisamitsu Pharmaceutical Co., Inc., priority 2003, dated 2009).

Legend:
Assay type in all cases: cell-based, human
p53 = test: Immunoblotting of cisplatin-treated SH-SY5Y cells with anti-p53 antibody; conditions: FIG. 15
Protocol: (§1) Next, products obtained by cisplatin treatment of SH-SY5Y cells are analyzed by immunoblotting and immunoprecipitation. Specifically, SH-SY5Y cells are treated with cisplatin, and then the expression levels of p53, p21, βAPP and actin are analyzed by immunoblotting. Moreover, an interaction between a βAPP-derived product and p53 is analyzed by immunoprecipitation and immunoblotting. FIG. 15 is diagrams showing the result of immunoblotting analysis of products obtained by cisplatin treatment of SH-SY5Y cells. In the figure, “IP” means immunoprecipitation, and “IB” means immunoblotting. The second diagram from the top in FIG. 15 is a diagram showing the result of immunoblotting analysis using anti-p53 antibody. […] The third diagram from the top in FIG. 15 is a diagram showing the result of immunoblotting analysis using anti-p21 antibody. […] The uppermost diagram in FIG. 15 is a diagram showing the result of immunoprecipitation of a cell lysate (homogenate) using anti-βAPP antibody, and immunoblotting analysis of the immunoprecipitate using anti-p53 antibody. […] Since βAPP is present on the membrane and p53 is present in the nucleus, it is unlikely that there is physical binding therebetween.

[1] = test system: βAPP-derived product and p53; test: Immunoprecipitation with anti-βAPP antibody and immunoblotting with anti-p53 antibody of cisplatin-treated SH-SY5Y cells; conditions: SH-SY5Y cell lysate, IP anti-βAPP, IB anti-p53, FIG. 15
Protocol: as §1

SH-SY5Y cells = test: Cell viability assay (MTT method) after cisplatin treatment; conditions: SH-SY5Y cells treated with cisplatin, FIG. 14
Protocol: SH-SY5Y cells, which are a neuroblastoma cell line, are used as tumor cells. SH-SY5Y cells are treated with cisplatin, and then the cell viability is measured by the MTT method. FIG. 14 is a graph showing the relationship between the amount of cisplatin and the cell viability of SH-SY5Y cells. The cell viability was determined by a modified 3-(4,5-dimethylthiazol-2-yl)-2,5-diphenyltetrazolium bromide (MTT) assay. Specifically, […] cells were plated on 100 μl of complete medium in a 96-well micro titer plate (5×10^3 cells/well), and made to adhere thereto. On the next day, the medium was changed, and the cells were treated with cisplatin for 24 hours. In the MTT assay, 10 μl of MTT solution was added to each well, and incubated at 37° C. for 3 hours. The absorbance of the wells at 570 nm was measured using a microplate reader (Type 450, Bio-Rad Laboratories).

p21 = test: Immunoblotting of cisplatin-treated SH-SY5Y cells with anti-p21 antibody; conditions: FIG. 15
Protocol: as §1

N.N.[Cl][Pt][Cl] [cisplatin]
induction of endogenous p53 (p53): the induction of endogenous p53 by cisplatin can be seen
physical binding between a βAPP-derived product and p53 [1]: p53 is present in the cisplatin treatment group
cell viability of SH-SY5Y cells (SH-SY5Y cells): the number of SH-SY5Y cells decreases depending on the dosage of cisplatin
expression of p21 (p21): p53 expressed during the cisplatin treatment promotes the expression of p21
